The conditions of data set [1]: 298.15 K; for mass density: 101.33 kPa, Vibrating tube method; for surface tension liquid-gas: Pendant drop shape.
Data set [2] is described as follows: xn = mol fraction of the nth substance listed. The conditions noted are these: 298.15 K, Pendant drop shape.

± gives the expanded uncertainty stated by the source.

With `Cc1ccccc1C` [1,2-dimethylbenzene], in data set [1] (Liquid), the mass density (in general, the mass of a sample divided by its volume) is on record as 875.92 ± 0.11 kg/m3 and the surface tension liquid-gas (usually the work needed to enlarge the surface of a liquid by unit area) turned out to be 29.6 ± 0.4 mN/m.

`Cc1ccccc1C` [1,2-dimethylbenzene] + CC(C)(C)O: the surface tension liquid-gas in data set [2] (x2 = 0) came out at 29.6 ± 0.4 mN/m; in data set [2] (x2 = 0.1083) it was 27.8 ± 0.38 mN/m; in data set [2] (x2 = 0.1992) it was 26.43 ± 0.36 mN/m; in data set [2] (x2 = 0.3042), 25.27 ± 0.35 mN/m; in data set [2] (x2 = 0.402), 24.32 ± 0.34 mN/m; in data set [2] (x2 = 0.5007), 23.6 ± 0.34 mN/m. Further, the surface tension liquid-gas is on record as 22.82 ± 0.33 mN/m in data set [2] (x2 = 0.5988), 22.05 ± 0.32 mN/m in data set [2] (x2 = 0.6992), 21.38 ± 0.31 mN/m in data set [2] (x2 = 0.8) and 20.71 ± 0.31 mN/m in data set [2] (x2 = 0.8991).

Take `Cc1ccccc1C` [1,2-dimethylbenzene] + CC(C)O: the surface tension liquid-gas in data set [2] (x2 = 0) turned out to be 29.6 ± 0.4 mN/m; in data set [2] (x2 = 0.0992) it was 28.21 ± 0.38 mN/m; in data set [2] (x2 = 0.1988) it was 27.11 ± 0.37 mN/m; in data set [2] (x2 = 0.3024), 26.07 ± 0.36 mN/m; in data set [2] (x2 = 0.4004), 25.3 ± 0.35 mN/m; in data set [2] (x2 = 0.4979) it was 24.54 ± 0.35 mN/m. For the same molecule, the surface tension liquid-gas in data set [2] (x2 = 0.5971) stood at 23.98 ± 0.34 mN/m; in data set [2] (x2 = 0.6988), 23.15 ± 0.33 mN/m; in data set [2] (x2 = 0.8), 22.4 ± 0.32 mN/m; in data set [2] (x2 = 0.8896) it was 21.72 ± 0.32 mN/m.

As for `Cc1cccc(C)c1` [1,3-dimethylbenzene], in data set [1] (Liquid), the mass density is 859.79 ± 0.16 kg/m3 and the surface tension liquid-gas turned out to be 28.36 ± 0.39 mN/m.

Turning to `Cc1cccc(C)c1` [1,3-dimethylbenzene] + CC(C)(C)O, the surface tension liquid-gas in data set [2] (x2 = 0) is on record as 28.36 ± 0.39 mN/m; in data set [2] (x2 = 0.1028), 26.83 ± 0.37 mN/m; in data set [2] (x2 = 0.201), 25.76 ± 0.36 mN/m; in data set [2] (x2 = 0.3006), 24.84 ± 0.35 mN/m; in data set [2] (x2 = 0.4009) it was 23.98 ± 0.34 mN/m; in data set [2] (x2 = 0.4999) it was 23.21 ± 0.33 mN/m. The surface tension liquid-gas stood at 22.52 ± 0.33 mN/m in data set [2] (x2 = 0.5994), 21.84 ± 0.32 mN/m in data set [2] (x2 = 0.6984), 21.22 ± 0.31 mN/m in data set [2] (x2 = 0.7981) and 20.64 ± 0.31 mN/m in data set [2] (x2 = 0.895).

On to `Cc1cccc(C)c1` [1,3-dimethylbenzene] + CC(C)O, for which the surface tension liquid-gas is 28.36 ± 0.39 mN/m in data set [2] (x2 = 0); 27.15 ± 0.38 mN/m in data set [2] (x2 = 0.1019); 26.23 ± 0.37 mN/m in data set [2] (x2 = 0.1933); 25.4 ± 0.36 mN/m in data set [2] (x2 = 0.2999); 24.76 ± 0.35 mN/m in data set [2] (x2 = 0.4024); 24.18 ± 0.34 mN/m in data set [2] (x2 = 0.4983). Further, the surface tension liquid-gas is listed as 23.56 ± 0.34 mN/m in data set [2] (x2 = 0.5957), 22.87 ± 0.33 mN/m in data set [2] (x2 = 0.7013), 22.26 ± 0.32 mN/m in data set [2] (x2 = 0.7952) and 21.58 ± 0.32 mN/m in data set [2] (x2 = 0.8987).

As to `Cc1ccc(C)cc1` [1,4-dimethylbenzene], in data set [1] (Liquid), the mass density is recorded as 856.85 ± 0.12 kg/m3 and the surface tension liquid-gas came out at 27.89 ± 0.38 mN/m.

As for `Cc1ccc(C)cc1` [1,4-dimethylbenzene] + CC(C)(C)O, the surface tension liquid-gas in data set [2] (x2 = 0) stood at 27.89 ± 0.38 mN/m; in data set [2] (x2 = 0.1004), 26.69 ± 0.37 mN/m; in data set [2] (x2 = 0.2113) it was 25.63 ± 0.36 mN/m; in data set [2] (x2 = 0.3049), 24.73 ± 0.35 mN/m; in data set [2] (x2 = 0.4065), 23.9 ± 0.34 mN/m; in data set [2] (x2 = 0.498), 23.25 ± 0.33 mN/m. For the same molecule, the surface tension liquid-gas in data set [2] (x2 = 0.6012) worked out at 22.5 ± 0.33 mN/m; in data set [2] (x2 = 0.698) it was 21.82 ± 0.32 mN/m; in data set [2] (x2 = 0.8007), 21.15 ± 0.31 mN/m; in data set [2] (x2 = 0.9002) it was 20.58 ± 0.31 mN/m.

With `Cc1ccc(C)cc1` [1,4-dimethylbenzene] + CC(C)O, the surface tension liquid-gas came to 27.89 ± 0.38 mN/m in data set [2] (x2 = 0); 26.82 ± 0.37 mN/m in data set [2] (x2 = 0.1029); 26.03 ± 0.36 mN/m in data set [2] (x2 = 0.2014); 25.32 ± 0.35 mN/m in data set [2] (x2 = 0.2993); 24.63 ± 0.35 mN/m in data set [2] (x2 = 0.403); 24.06 ± 0.34 mN/m in data set [2] (x2 = 0.4979). For the same molecule, the surface tension liquid-gas is listed as 23.45 ± 0.33 mN/m in data set [2] (x2 = 0.5985), 22.86 ± 0.33 mN/m in data set [2] (x2 = 0.6991), 22.22 ± 0.32 mN/m in data set [2] (x2 = 0.7982) and 21.52 ± 0.32 mN/m in data set [2] (x2 = 0.9047).

Take `CC(C)(C)O` [2-methylpropan-2-ol]: the mass density in data set [1] (Liquid) came out at 780.27 ± 0.16 kg/m3. In addition, the surface tension liquid-gas in data set [1] (Metastable liquid) worked out at 19.97 ± 0.3 mN/m.

Regarding `CC(C)(C)O` [2-methylpropan-2-ol] + Cc1ccc(C)cc1, in data set [2] (x1 = 1), the surface tension liquid-gas was found to be 19.97 ± 0.3 mN/m.

On to `CC(C)(C)O` [2-methylpropan-2-ol] + Cc1cccc(C)c1, for which the surface tension liquid-gas in data set [2] (x1 = 1) was determined as 19.97 ± 0.3 mN/m.

Consider `CC(C)(C)O` [2-methylpropan-2-ol] + Cc1ccccc1C, for which the surface tension liquid-gas in data set [2] (x1 = 1) worked out at 19.97 ± 0.3 mN/m.

Take `CC(C)O` [propan-2-ol]: in data set [1] (Liquid), the mass density was found to be 780.85 ± 0.16 kg/m3 and the surface tension liquid-gas was 20.93 ± 0.31 mN/m.

Turning to `CC(C)O` [propan-2-ol] + Cc1ccc(C)cc1, the surface tension liquid-gas in data set [2] (x1 = 1) turned out to be 20.93 ± 0.31 mN/m.

In the case of `CC(C)O` [propan-2-ol] + Cc1cccc(C)c1, in data set [2] (x1 = 1), the surface tension liquid-gas came to 20.93 ± 0.31 mN/m.

In the case of `CC(C)O` [propan-2-ol] + Cc1ccccc1C, the surface tension liquid-gas in data set [2] (x1 = 1) is 20.93 ± 0.31 mN/m.
